Positions of bridges follow the written chain, without caps; N, C: chain ends. Non-standard residues stand in square brackets, D forms with d. Residues, ends and D or L forms follow the SMILES beside them. A value given as a limit tells only on which side of the number the result lay.

The subject of assay [1] is Sprague-Dawley rats. The assay is described as follows: Morphine antagonism, tail flick test. Conditions: Reversal of morphine analgesia, 100 μg peptide given I.P. 30 min before 5 mg/kg morphine; 55° C. water bath, 15 s cut-off; water vehicle control 48.9. The class given is in vivo, rat. The method, then:
(§1) Central nervous system activity is determined in an assay which measures the ability of peptides to reverse or inhibit the in vivo analgesia induced in rats by morphine compared to the ability of the peptide to cause skin darkening in frogs in vivo. For a discussion of these assays see generally, Beckwith, B. E. and Sandman, C. A., Peptides, 3, 411-420 (1982) and Zimmerman, E. and Krivoy, W. A., Prog. Brain Res.; 39, 383-394 (1973), which are specifically incorporated by reference herein.
(§2) In Vivo Bioassays. Morphine antagonism was tested in Sprague-Dawley rats (250-300 g) by administering the compounds of the present invention and measuring the latency to rear paw lick and jumping.
(§3) Each rat received either a water vehicle or an α-MSH analog intraperitoneally. Thirty minutes later 5 mg/kg of morphine was administered to all animals and 30 minutes after the administration of the morphine, the percent analgesia was measured. Each animal was placed on a 55° C. hot plate. A sixty second cut-off was used and animals not responding within this time was considered analgesic. The results of these tests are summarized in Table I. Percent analgesia was calculated as follows: [formula] Antagonism to morphine analgesia was also measured using the tail flick test. The tails of the treated animals were placed in a 55° C. water bath and the latency of the animals to withdraw was measured in seconds. A fifteen second cut-off time was used.
Percent analgesia in the tail flick test was calculated as follows: [formula]
(In general: In hot-plate and tail-flick tests a longer latency is read as antinociception.)

Assay [2] concerns frog Rana pipiens. The assay is described as follows: Frog skin bioassay (skin darkening, peripheral activity). Conditions: injected into dorsal lymph sac of Rana pipiens, 30 minute observation. Type of assay: in vivo. As to the method:
as §1
The peripheral activity of the compounds was tested using the frog skin bioassay system. See O'Donohue, T. L. and Dorsa, D. M., Peptides, 3, 353-395 (1982) and Hadley, M.E. et. al., Science, 213, 1025-1027 (1981) which are herein specifically incorporated by reference. Peptides were injected into the dorsal lymph sac of the frog Rana pipiens in amounts up to 20 mg. […] The lowest dose of peptide that produced skin darkening within the 30 minute observation period was determined. For example, in Table I, only 0.1 ng/g of α-MSH was administered before skin darkening was observed. In contract, 30 μg/g of [drawing 23] was administered and no skin darkening was observed.

In assay [3] the test system is Sprague-Dawley rats. Put plainly: Morphine antagonism, hot plate test. Type of assay: in vivo, rat. The conditions noted are these: Reversal of morphine analgesia, 100 μg peptide given I.P. 30 min before 5 mg/kg morphine; 55° C. hot plate, 60 s cut-off; water vehicle control 56.1. As to the method:
as §1, §2, §3

`N=C(N)NCCC[C@H]1NC(=O)[C@H](Cc2ccccc2)NC(=O)[C@H](Cc2c[nH]cn2)NC(=O)[C@H](CCC(=O)O)NC(=O)[C@@H](N)CSSC[C@@H](C(=O)O)NC(=O)[C@H](Cc2c[nH]c3ccccc23)NC1=O`: the “Percent Analgesia Tail Flick” value in assay [1] stood at 6.7%. In assay [2], the “Minimum dose Producing Skin Darkening” value is greater than 20 µg/g.

As for `NCCCC[C@H]1NC(=O)[C@H](Cc2ccccc2)NC(=O)[C@H](Cc2c[nH]cn2)NC(=O)[C@H](CCC(=O)O)NC(=O)[C@@H](N)CSSC[C@@H](C(=O)O)NC(=O)[C@H](Cc2ccccc2)NC1=O` (H-CEHF[dK]FC-OH; disulfide 1-7), the “Percent Analgesia Tail Flick” value in assay [1] is reported as 14.9%. The “Minimum dose Producing Skin Darkening” value in assay [2] is greater than 1 µg/g. Besides, the “Percent Analgesia Hot Plate” value in assay [3] turned out to be 15.5%.

Regarding `NCCCC[C@H]1NC(=O)[C@H](Cc2ccccc2)NC(=O)[C@H](Cc2c[nH]cn2)NC(=O)[C@H](CCC(=O)O)NC(=O)[C@@H](N)CSSC[C@H](C(=O)O)NC(=O)[C@H](Cc2ccccc2)NC1=O` (H-CEHF[dK]F[dC]-OH; disulfide 1-7), the “Percent Analgesia Tail Flick” value in assay [1] was 10.5%. Further, the “Minimum dose Producing Skin Darkening” value in assay [2] is 1 µg/g. For the same compound, in assay [3], the “Percent Analgesia Hot Plate” value is 15.0%.

For `NCCCC[C@H]1NC(=O)[C@H](Cc2ccccc2)NC(=O)[C@H](Cc2c[nH]cn2)NC(=O)[C@H](CCC(=O)O)NC(=O)[C@@H](N)CSSC[C@@H](C(=O)O)NC(=O)[C@H](Cc2c[nH]c3ccccc23)NC1=O` (H-CEHF[dK]WC-OH; disulfide 1-7), the “Percent Analgesia Tail Flick” value in assay [1] turned out to be 1.5%. Moreover, in assay [2], the “Minimum dose Producing Skin Darkening” value is greater than 30 µg/g.

In the case of `N=C(N)NCCC[C@H]1NC(=O)[C@H](Cc2ccccc2)NC(=O)[C@H](Cc2c[nH]cn2)NC(=O)[C@H](CCC(=O)O)NC(=O)[C@@H](N)CSSC[C@H](C(=O)O)NC(=O)[C@H](Cc2ccccc2)NC1=O` (H-CEHF[dR]F[dC]-OH; disulfide 1-7), in assay [1], the “Percent Analgesia Tail Flick” value is given as 34.3%. Moreover, the “Minimum dose Producing Skin Darkening” value in assay [2] is greater than 1 µg/g. Further, in assay [3], the “Percent Analgesia Hot Plate” value is reported as 42.6%.

Regarding β-MSH [reference compound], the “Percent Analgesia Tail Flick” value in assay [1] came to 11.9%. Besides, the “Percent Analgesia Hot Plate” value in assay [3] is recorded as 26.9%.

For the origin of these results see patent US4649191A, “Conformationally constrained alpha-melanotropin analogs with specific central nervous system activity” (Gibson-Stephens Neuropharmaceuticals, Inc., priority 1984, dated 1987).
